Results as given in patent publication US5637619A, “Antitumor 2-aminocarbonyl-1, 2-bis(methylsulfonyl)-1-(substituted)hydrazines” (Yale University, priority 1995, dated 1997).
“And” between values parts separate entries of the source, which are not always exact repeats. Equal entries are not always repeated. “Also recorded” adds a separate entry of the source.

Assays:
L1210 leukemia = L1210 leukemia survival time in mice (ip implanted); type: in vivo, mice (CD2F1); details: for %T/C (average survival time treated/control × 100): cures not included
Experimental: Leukemia L1210 cells were obtained from the Frederick Cancer Research Facility, Division of Cancer Treatment Tumor Repository of the National Cancer Institute, and were maintained by serial passage in tissue culture. Every 8 weeks, tumor cells were injected intraperitoneally into five donor CD2 F1 mice 8- to 10- weeks of age and were allowed to grow for 7 days. The peritoneal fluid was withdrawn and the suspension was centrifuged for 5 min at 1600 g. The supernatant was decanted and 10^5 cells/mL were seeded into 10 mL of RPMI 1640 medium supplemented with 10% fetal bovine serum and 1% L-glutamine, and once again maintained in culture. To assay for antineoplastic activity, 0.1 mL of the cell suspension containing 10^5 L1210 leukemia cells was injected ip into each recipient mouse. Test compounds were administered over a wide range of dosage levels, beginning 24 h after tumor implantation, and continued once daily for 6 consecutive days. All drugs were administered ip as a solution in 100% dimethylsulfoxide (DMSO), in a volume not exceeding 0.025 mL. […] Mice were weighed during the course of the experiments, and the percentage change in body weight from onset to termination of therapy was used as an indication of drug toxicity. Determination of the sensitivity of neoplasms to these agents was based upon the prolongation of survival time afforded by the drug treatments.
^a Administered ip once daily for six consecutive days, beginning 24 hours after tumor implantation, with 5-10 mice being used per group. ^b Average percent change in body weight from onset to termination of therapy. ^c % T/C=average survival time of treated/control mice×100; cures (>60-day survivors) are listed separately and are not included in this calculation.

M109 lung carcinoma = assay: M109 lung carcinoma, ip implanted; type: in vivo, BALB/c mice; details: 50 mg/kg/injection, q4d × 3, ip, 10% DMSO in saline; highest dose tested
Experimental: (§1) The M5076 reticulum cell sarcoma was passaged biweekly by sc transfer of tumor fragments into C57BL/6 mice, and the M109 lung carcinoma was similarly passaged in BALB/c mice. The LX-1 human lung carcinoma was passaged sc every two to three weeks in BALB/c-background athymic (nu/nu) mice. For use in these systems, compound III was dissolved in: (a) 100% DMSO and administered by iv injection in a fixed volume of 10 microliters; or (b) DMSO diluted with saline to a final concentration of 10% DMSO and administered iv in a volume of 0.01 milliliter/g of body weight. […] Mitomycin C and cyclophosphamide were dissolved and administered in saline. BCNU and MeCCNU were dissolved in ethanol and diluted 1:9 (v/v) with water prior to administration.
(§2) Five mice per group were employed in experiments with the B16F10 melanoma, and 8 mice per group with the M5076 sarcoma, the M109 carcinoma and the LX-1 carcinoma. […] Therapeutic results are presented in terms of: (a) increases in lifespan reflected by the relative median survival time (MST) of treated versus control groups (i.e., %T/C values), and by long-term survivors, and (b) primary tumor growth inhibition (i.e., T-C values) determined by calculating the relative median times for treated (T) and control untreated (C) mice to grow tumors of a 0.5 g size for the LX-1 carcinoma or a 1 g size for the murine neoplasms. […]

[1] = test system: M5076 reticulum cell sarcoma; assay: M5076 reticulum cell sarcoma, sc implanted; type: in vivo, C57BL/6 mice; details: 48 mg/kg/injection, q2d × 5, iv, 100% DMSO
Experimental: as §1
Five mice per group were employed in experiments with the B16F10 melanoma, and 8 mice per group with the M5076 sarcoma, the M109 carcinoma and the LX-1 carcinoma. A minimum of two dose levels per compound were included in each evaluation and drug therapy was initiated 24 h after tumor implantation for the M5076 sarcoma and M109 carcinoma. In the LX-1 experiment, tumor bearing mice were selected and sorted into treatment and control groups on day 6 post-tumor implant such that all tumor weights ranged from 50-100 mg and median tumor weights per group were reasonably similar. Therapeutic results are presented in terms of: (a) increases in lifespan reflected by the relative median survival time (MST) of treated versus control groups (i.e., %T/C values), and by long-term survivors, and (b) primary tumor growth inhibition (i.e., T-C values) determined by calculating the relative median times for treated (T) and control untreated (C) mice to grow tumors of a 0.5 g size for the LX-1 carcinoma or a 1 g size for the murine neoplasms. Tumor weights were interchangeable with tumor size on the basis of 1 mm^3 =1 mg. […] The activity criterion for tumor inhibition was a delay in tumor growth consistent with one log10 cell kill (LCK). The absolute T-C value needed to attain this level of efficacy varied from experiment to experiment and depended upon the tumor volume doubling time of the control mice in each study. Treated mice dying prior to day 10 in the ip M109 experiment, or dying before their tumors achieved 0.5 g for the LX-1 carcinoma or 1 g in size for all other sc tumor models, were considered to have died from drug toxicity. Groups of mice with more than one death due to drug toxicity were not used in the evaluation of antitumor efficacy. Statistical evaluations of data were performed using Gehan's generalized Wilcoxan test (Gehan, Biometrika, 1965, 52, 203-233).
Compound III was also evaluated against the M5076 reticulum cell sarcoma implanted sc. When administered iv at a level of 48 mg/kg per injection in 100% DMSO every other day for five days, compound III cured 6 out of 8 mice and consequently, no median time (T-C value) to reach 1 gram size tumors was expressed for this group. Tumor growth in mice receiving only 100% DMSO was indistinguishable from that of untreated control animals. 1-(2-Chloroethyl)-3-(4-methylcyclohexyl)-1-nitrosourea (MeCCNU) and BCNU were included in this experiment for comparison. The former achieved a maximum %T/C of 128 and a delay in tumor growth of 33.5 days at 16 mg/kg per injection administered iv every fourth day for three total injections, while BCNU, administered iv on the same treatment schedule, produced a %T/C in excess of 157, with 2 out of 8 cures, and a T-C of >62 days (data not shown).

[2] = test system: several more stringent distal site tumor models; assay: Comparison with clinically active alkylating agents in several distal site tumor models; type: in vivo, mice; details: qualitative summary
Experimental: B16F10 melanoma cells were grown in vitro as monolayers in minimum essential medium with Hank's salts supplemented with 10% fetal bovine serum and 1% 200 mM L-glutamine solution. Solid tumors were produced in C57BL/6 female mice 12- to 14-weeks of age by the intradermal injection in the right flank of each mouse of 0.1 mL of a cell suspension containing 10^6 B16F10 cells/mL from freshly trypsinized cultures. After 10-12 days, animals bearing approximately 100 mm^3 tumors were treated ip with compound III or IV dissolved in 100% DMSO for 6 consecutive days, and tumor volumes were measured on alternate days until reaching 1000 mm^3. […]
as §2

CS(=O)(=O)N(CCCl)N(C(=O)NCCCl)S(C)(=O)=O [Compound III, 1,2-bis(methylsulfonyl)-1-(2-chloroethyl)-2-(2-chloroethyl)aminocarbonylhydrazine]
% 60 Day Survivors (cures) (L1210 leukemia; 10 mg/kg ip once daily × 6): 100%
% 60 Day Survivors (cures) (L1210 leukemia; 15 mg/kg ip once daily × 6): 80%
%T/C (average survival time treated/control × 100) (L1210 leukemia; 15 mg/kg ip once daily × 6): 216%
% 60 Day Survivors (cures) (L1210 leukemia; 20 mg/kg ip once daily × 6): 80%
%T/C (average survival time treated/control × 100) (L1210 leukemia; 20 mg/kg ip once daily × 6): 239%
antileukemic activity / therapeutic potential (in words) (L1210 leukemia; qualitative, L1210 leukemia in mice): One of the most active and potent compounds in the series; also recorded: much better therapeutic potential than the amino acid ester derivatives
%T/C (median survival time) (M109 lung carcinoma): 267%
%T/C (median survival time) [1]: > 157%
Cures/Total [1]: 6/8 and 6 out of 8
antitumor activity versus clinical alkylating agents (in words) [2]: better than or equal to some of the best clinically active alkylating agents used for comparison
